Key:
Kif2A-MD = target: T1, Kif2A-MD (Homo sapiens, UniProt O00139); assay: malachite green phosphate release ATPase assay; assay type: biochemical; conditions: tubulin- or microtubule-stimulated; BRB80-based buffer pH 6.8, 1 mM MgCl2, 75 mM KCl; without DARPin
T1 construct: motor domain without most of the neck, residues 203-554, pGex-6P1, PreScission-cleaved GST fusion; 1:1 complex with tubulin; with Tubulin alpha chain (Bos taurus, brain); Tubulin beta chain (Bos taurus, brain)

Kif2A-NM = target: T2, Kif2A-NM (Homo sapiens, UniProt O00139); assay: malachite green phosphate release ATPase assay; assay type: biochemical; conditions: tubulin- or microtubule-stimulated; BRB80-based buffer pH 6.8, 1 mM MgCl2, 75 mM KCl; without DARPin
T2 construct: neck plus motor domain, residues 153-553, monomer, 48 kDa, His-tagged, from E. coli BL21(DE3) pLysS; studied with bovine brain tubulin (1:2 complex), crystal also holds DARPin D1; full length 706 residues; with Tubulin alpha chain (Bos taurus, brain); Tubulin beta chain (Bos taurus, brain)

[1] = target: αβ-tubulin heterodimer from bovine brain (bovine) (UniProt Q6B856); assay: SEC-SAXS; in-line Superdex 200 10/300 GL, 20 mM HEPES, 150 mM NaCl, 1 mM MgCl2, pH 7.2; 25 μM tubulin, 27 μM DARPin, 20 μM Kif2A-NM, 0.1 mM AMPPNP; 270 kDa peak; 22 °C
[2] = target: αβ-tubulin heterodimer from bovine brain (bovine) (UniProt Q6B856); assay: not stated; Kif2A-MD with tubulin, shown in Supplementary Figure 6; method not given

T1 sequence (O00139 203-554): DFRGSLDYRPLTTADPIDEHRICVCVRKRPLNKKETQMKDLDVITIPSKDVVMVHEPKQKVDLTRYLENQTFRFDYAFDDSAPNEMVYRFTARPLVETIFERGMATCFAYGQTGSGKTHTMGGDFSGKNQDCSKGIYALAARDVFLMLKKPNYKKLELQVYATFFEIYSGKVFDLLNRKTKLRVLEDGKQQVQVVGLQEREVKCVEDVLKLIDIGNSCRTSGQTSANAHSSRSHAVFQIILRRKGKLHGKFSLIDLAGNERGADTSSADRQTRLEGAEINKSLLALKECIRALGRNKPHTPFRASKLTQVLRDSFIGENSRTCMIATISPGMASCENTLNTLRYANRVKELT
T1 sequence (P81947 whole entry partner, the tested form may be a part): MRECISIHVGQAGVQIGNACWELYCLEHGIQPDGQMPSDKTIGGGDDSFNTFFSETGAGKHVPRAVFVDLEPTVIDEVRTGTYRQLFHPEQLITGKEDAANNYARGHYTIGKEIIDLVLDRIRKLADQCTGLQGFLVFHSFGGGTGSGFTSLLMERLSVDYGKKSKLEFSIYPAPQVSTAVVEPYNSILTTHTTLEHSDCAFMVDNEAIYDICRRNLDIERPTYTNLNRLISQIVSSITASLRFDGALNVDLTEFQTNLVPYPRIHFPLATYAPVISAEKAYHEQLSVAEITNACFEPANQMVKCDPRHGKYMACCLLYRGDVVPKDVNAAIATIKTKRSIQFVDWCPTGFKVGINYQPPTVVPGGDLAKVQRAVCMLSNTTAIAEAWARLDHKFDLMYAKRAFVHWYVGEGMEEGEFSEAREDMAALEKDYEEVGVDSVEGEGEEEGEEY
T1 sequence (Q6B856 whole entry partner, the tested form may be a part): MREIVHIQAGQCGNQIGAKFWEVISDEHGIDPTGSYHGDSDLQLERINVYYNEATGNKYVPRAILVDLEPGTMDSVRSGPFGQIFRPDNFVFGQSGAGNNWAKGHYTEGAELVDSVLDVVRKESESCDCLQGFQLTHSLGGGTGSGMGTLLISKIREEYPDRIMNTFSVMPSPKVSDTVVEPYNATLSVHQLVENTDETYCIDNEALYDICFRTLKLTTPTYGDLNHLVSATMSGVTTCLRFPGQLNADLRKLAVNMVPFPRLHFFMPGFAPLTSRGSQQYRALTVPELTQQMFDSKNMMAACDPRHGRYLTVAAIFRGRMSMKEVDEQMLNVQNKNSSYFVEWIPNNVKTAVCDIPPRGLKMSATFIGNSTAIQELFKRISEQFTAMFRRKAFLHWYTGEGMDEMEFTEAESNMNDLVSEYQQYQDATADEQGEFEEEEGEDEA
Kif2A-MD (human Kif2A motor domain without the neck, residues 203–554), sequence (O00139 203-554): as the sequence (O00139 203-554) above
Kif2A-NM (human Kif2A neck plus motor domain, residues 153–553), sequence (O00139 153-553): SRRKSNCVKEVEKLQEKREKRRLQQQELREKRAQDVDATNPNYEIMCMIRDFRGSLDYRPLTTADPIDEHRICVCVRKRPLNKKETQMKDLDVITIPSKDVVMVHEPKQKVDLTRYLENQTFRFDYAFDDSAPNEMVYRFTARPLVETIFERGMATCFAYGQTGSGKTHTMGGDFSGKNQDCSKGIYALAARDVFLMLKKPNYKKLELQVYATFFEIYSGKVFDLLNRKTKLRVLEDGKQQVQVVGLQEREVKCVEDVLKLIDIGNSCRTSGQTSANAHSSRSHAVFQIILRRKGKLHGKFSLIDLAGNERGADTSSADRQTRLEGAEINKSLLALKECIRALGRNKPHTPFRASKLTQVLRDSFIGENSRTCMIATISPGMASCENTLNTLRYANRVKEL
T2 sequence (O00139 153-553): as above
T2 sequence (P81947 whole entry partner, the tested form may be a part): as the sequence (P81947 whole entry partner, the tested form may be a part) above
T2 sequence (Q6B856 whole entry partner, the tested form may be a part): as the sequence (Q6B856 whole entry partner, the tested form may be a part) above

Nc1ncnc2c1ncn2[C@@H]1O[C@H](COP(=O)(O)OP(=O)(O)OP(=O)(O)O)[C@@H](O)[C@H]1O [ATP]
ATP turnover rate (Kif2A-MD): ATP turnover rates of Kif2A-NM (orange) and Kif2A-MD (gray) in the presence of tubulin
ATP turnover rate (Kif2A-NM): ATP turnover rates of Kif2A-NM (orange) and Kif2A-MD (gray) in the presence of tubulin

Kif2A-NM (human Kif2A neck plus motor domain, residues 153–553) (from UniProt O00139 153-553) (domain or fragment)
stoichiometry N (αβ-tubulin dimers per Kif2A-NM) [1]: 2

Kif2A-MD (human Kif2A motor domain without the neck, residues 203–554) (from UniProt O00139 203-554) (domain or fragment)
stoichiometry N (Kif2A-MD per tubulin dimer (1:1)) [2]: 1
